“Also recorded” adds a separate entry of the source.
Tests used:
human ES cells [1] = assay: Cell adhesion assay, 1 hour after plating on coated plates; assay type: cell-based
Procedure: (§1) The assay was performed as described (Extracellular Matrix Protocols, 2000). Briefly, 96-well plates were coated by extracellular matrix proteins as described above and blocked by O3 medium containing bovine serum albumin. The ES cells were plated at a cell density of 600 cell/mm^2 upon extracellular matrix-coated plates and were left to adhere for either 1 hour or 1 day at the cell incubator. Non-adherent cells were washed away, and adherent cells were fixed for 20 min by 5% glutaraldehyde, stained by 0.1% Crystal Violet.
Briefly, 96-well plates were coated by extracellular matrix proteins as described above and blocked by O3 medium containing bovine serum albumin. The ES cells were plated at cell density of 50,000 cells/cm^2 onto extracellular matrix-coated plates and left to adhere for 1 hour in a cell incubator. After that the plates were washed 3 times with the medium to remove the non-adherent cells, and then the adherent cells were fixed for 20 minutes by 5% glutaraldehyde, stained by 0.1% Crystal Violet. (Kebo Lab, Spanga, Sweden, http://www.kebolab.se). After one hour and 3 washes with water, Crystal Violet was extracted with 10% acetic acid and quantified by measuring optical density at 570 nm. All the experiments were performed in quadruplicate.

human ES cells [2] = assay: Cell survival assay, 24 hours (1 day) after plating from single cell suspension; assay type: cell-based; details: for survival / attachment of dissociated hES cells 24 hours (one day) after plating: single cell suspension, O3 medium, no ROCK inhibitor
Procedure: as §1
(§2) The survival assay was performed as described for the cell adhesion assay above, except that the cells were left in the cell incubator for 24 hours. For inhibition of survival assay, the cells were kept in a medium with function blocking antibodies at the concentrations recommended by the manufacturer or pathway inhibitors at concentrations indicated in the text for 30 minutes, and then plated on the coated dishes. All the experiments were performed in quadruplicate.
Pluripotent hES cells express α1, α5, β1, β2 and γ1 laminin chains. To compare the adhesion and clonal survival of hES cells plated from single cell suspension to different coating substrata, hES cells growing as monolayers on LN-511 or as clusters on a feeder layer were trypsinized into single cell suspension in O3 medium and plated on cell culture dishes coated with Matrigel, LN-111, LN-511, LN-521 or a mixture of LN-511 and LN-521, in the absence or presence of a ROCK inhibitor (Y-27632) and analyzed after 24 hours.

human ES and iPS cells = details: human ES cells grown on laminin-511; cited from earlier work
mouse ES cells = details: without LIF or feeder cells; cited from earlier work
human ES cells on LN-521 = assay: Inhibition of survival assay on LN-521 (function blocking antibodies, pathway inhibitors); assay type: cell-based; details: medium contained bFGF, FIG. 16
Procedure: as §2

Akt and MEK1 = assay: Western blot of inhibitor treated and control cells one hour after plating on LN-521; assay type: cell-based, human; details: one hour after plating on LN-521, FIG. 18 and 19
Procedure: HS 181 cells were trypsinized into single cell suspension as described above. For inhibition experiments, the cells were kept in O3 medium with blocking antibodies or pathway inhibitors for 30 minutes and then […] cells were plated on 35 mm dishes precoated with the appropriate matrix coating. For other experiments, same number of cells was plated directly after trypsinization. In all cases the cells were allowed to spread for 1 hour at 37° C., 5% CO2. After two washings in ice-cold PBS, the plates with cells were snap frozen in liquid nitrogen and stored at -80° C. To prepare samples for western blots and ELISA, the plates were slowly thawed and kept on ice with 100-150 μl of lysis buffer (50 mM Tris-HCl, pH7.5, 150 mM NaCl, 0.5% deoxycholate, 0.5% SDS, 1% Triton X-100, 1% Igepal, CompleteTM (Roche) and Phospho-StopTM (Roche)) on top. Then, the cells were scraped, pipetted and sheared through a 27 G 3⁄4'' needle. After that, the cell pellets were clarified by centrifugation at 16,100 rcf for 15 minutes at 4° C. For western blots, 4-12% gradient gels were used for SDS electrophoresis and the proteins were transferred to PVDF membranes. The membrane was hybridized with the antibody of interest according to the manufacturer's instructions. […] For the densitometry analysis the films were scanned at 2,400 dpi and analyzed by the […]5500 program (1 D-Multi Line densitometry mode). […]

hES cells = assay: Clonal survival of individualized hES cells at 250 cells per cm^2; assay type: cell-based, human; details: laminin-521/E-Cadherin matrix
Procedure: hES cells were plated in mTeSR1 medium on different coatings at a density of 250 cells per cm^2 and monitored after 5 days in culture using an alkaline phosphatase staining kit.
Next, combinations of laminin-521 and E-Cadherin were tested to determine whether the combinations could sustain clonal survival of the cells. Fixed amounts of laminin-521 were used for the cell culture dish coating in combination with titrated E-Cadherin.
Additional tests were performed to test the effects of various modifications to the mTeSR1 medium. A mixture of E-Cadherin to laminin-521 in a ratio of about 1:10 w/w was used to coat the plates. […] Time-lapse photography of the cells confirmed that laminin-521/E-Cadherin coatings facilitated cell survival through proliferation of the single cells, not through the aggregation of different cells.

LN-511: human recombinant laminin-511 coating
adhesion of human ES cells after 1 hour (human ES cells [1]; O3 medium without any additives, without Y-27632, FIG. 6): roughly the same
spreading of the cells after one hour compared with Matrigel or LN-111 (human ES cells [1]; dissociated hES cells, not shown): clearly better
survival / attachment of dissociated hES cells 24 hours (one day) after plating (human ES cells [2]): did so as single cells; also recorded: very few
survival / attachment of dissociated hES cells 24 hours (one day) after plating (human ES cells [2]; listed as human r-laminin-511): at a less extent
survival / attachment of dissociated hES cells 24 hours (one day) after plating (human ES cells [2]; listed as laminin-511): in most cases
time hES cells maintain pluripotency and can generate teratomas in SCID mice (human ES and iPS cells): over 3 months
time of self-renewal of mouse ES cells (mouse ES cells): over 5 months

LN-121: human recombinant laminin of α1, β2 and γ1 chains from triple transfected HEK293 cells
survival / attachment of dissociated hES cells 24 hours (one day) after plating (human ES cells [2]): failed to survive

LN-111: mouse laminin-111 (Invitrogen), indicated as LN-111 if not otherwise stated
survival / attachment of dissociated hES cells 24 hours (one day) after plating (human ES cells [2]): did not survive; also recorded: almost no cells had survived
survival / attachment of dissociated hES cells 24 hours (one day) after plating (human ES cells [2]; listed as mouse laminin-111): almost no cells remained attached

COc1cccc(-c2cc(=O)c3ccccc3o2)c1N [PD 98059]
survival of hES cells 24 hours after plating on LN-521 with pathway inhibitor (human ES cells on LN-521): did not affect the survival that severely
efficacy of inhibitor treatment by western blot (Akt and MEK1): confirmed

C[C@@H](N)[C@H]1CC[C@H](C(=O)Nc2ccncc2)CC1 [Y-27632]
attachment / survival of hES cells 24 hours after plating in presence of ROCK inhibitor (human ES cells [2]; O3 medium with Y-27632, Matrigel, LN-111, LN-511, LN-521 and mixture coatings): remained attached on all 5 coatings; also recorded: survived on all surfaces
cell shape 24 hours after plating on LN-521 (human ES cells [2]; absence or presence of ROCK inhibitor): spindle or crescent like shape

albumin
effect of 2× increase in albumin concentration in mTeSR1 on clonal survival (hES cells): significantly improved clonal survival

human recombinant LN-111: human recombinant laminin of α1, β1 and γ1 chains from triple transfected HEK293 cells
survival / attachment of dissociated hES cells 24 hours (one day) after plating (human ES cells [2]): failed to survive
